Results: ChEMBL document CHEMBL4840372, “Talarodrides A-F, Nonadrides from the Antarctic Sponge-Derived Fungus Talaromyces sp. HDN1820200” (J Nat Prod, 2021)
Converted amounts (≈) assume the structure as drawn.

How the values were obtained:
K562 = experiment: Cytotoxicity against human K562 cells assessed as reduction in cell viability by MTT assay; format: functional, cell-based
Bel-7402 = experiment: Cytotoxicity against human Bel-7402 cells assessed as reduction in cell viability by SRB assay; format: functional, cell-based
HCT-116 = experiment: Cytotoxicity against human HCT-116 cells assessed as reduction in cell viability by SRB assay; format: functional, cell-based
A549 = experiment: Cytotoxicity against human A549 cells assessed as reduction in cell viability by SRB assay; format: functional, cell-based
HeLa = experiment: Cytotoxicity against human HeLa cells assessed as reduction in cell viability by SRB assay; format: functional, cell-based
L02 = experiment: Cytotoxicity against human L02 cells assessed as reduction in cell viability by SRB assay; format: cell-based
GES1 = experiment: Cytotoxicity against human GES1 cells assessed as reduction in cell viability by SRB assay; format: functional, cell-based
U-87 MG = experiment: Cytotoxicity against human U87 cells assessed as reduction in cell viability by SRB assay; format: functional, cell-based, U-87MG ATCC
ASPC1 = experiment: Cytotoxicity against human ASPC1 cells assessed as reduction in cell viability by SRB assay; format: functional, cell-based
SH-SY5Y = experiment: Cytotoxicity against human SH-SY5Y cells assessed as reduction in cell viability by SRB assay; format: functional, cell-based
PC-3 = experiment: Cytotoxicity against human PC-3 cells assessed as reduction in cell viability by SRB assay; format: functional, cell-based
MGC-803 = experiment: Cytotoxicity against human MGC-803 cells assessed as reduction in cell viability by SRB assay; format: functional, cell-based
[1] = Cytotoxicity against human HO-8910 cells assessed as reduction in cell viability by SRB assay; format: functional, cell-based
MCF7 = experiment: Cytotoxicity against human MCF7 cells assessed as reduction in cell viability by SRB assay; format: functional, cell-based
MDA-MB-231 = experiment: Cytotoxicity against human MDA-MB-231 cells assessed as reduction in cell viability by SRB assay; format: functional, cell-based
NCI-H446 = experiment: Cytotoxicity against human NCI-H446 cells assessed as reduction in cell viability by SRB assay; format: functional, cell-based
Bacillus cereus = experiment: Antimicrobial activity against Bacillus cereus assessed as reduction in bacterial growth by agar dilution method; format: functional
Acinetobacter baumannii = experiment: Antimicrobial activity against Acinetobacter baumannii assessed as reduction in bacterial growth by agar dilution method; format: functional
Proteus mirabilis = experiment: Antimicrobial activity against Proteus mirabilis assessed as reduction in bacterial growth by agar dilution method; format: functional
Mycolicibacterium phlei = experiment: Antimicrobial activity against Mycobacterium phlei assessed as reduction in bacterial growth by agar dilution method; format: functional
Edwardsiella tarda = experiment: Antimicrobial activity against Edwardsiella tarda assessed as reduction in bacterial growth by agar dilution method; format: functional
Escherichia coli = experiment: Antimicrobial activity against Escherichia coli assessed as reduction in bacterial growth by agar dilution method; format: functional
Bacillus subtilis = experiment: Antimicrobial activity against Bacillus subtilis assessed as reduction in bacterial growth by agar dilution method; format: functional
Staphylococcus aureus = experiment: Antimicrobial activity against methicillin-resistant Staphylococcus aureus assessed as reduction in bacterial growth by agar dilution method; format: functional
Vibrio parahaemolyticus = experiment: Antimicrobial activity against Vibrio parahaemolyticus assessed as reduction in bacterial growth by agar dilution method; format: functional
Staphylococcus = experiment: Antimicrobial activity against methicillin-resistant coagulase-negative Staphylococci assessed as reduction in bacterial growth by agar dilution method; format: functional

Compound | IC50 (K562) [µM] | IC50 (Bel-7402) [µM] | IC50 (HCT-116) [µM] | IC50 (A549) [µM] | IC50 (HeLa) [µM] | IC50 (L02) [µM] | IC50 (GES1) [µM] | IC50 (U-87 MG) [µM] | IC50 (ASPC1) [µM] | IC50 (SH-SY5Y) [µM] | MIC (Bacillus cereus) [µM] | MIC (Acinetobacter baumannii) [µM] | MIC (Proteus mirabilis) [µM] | MIC (Mycolicibacterium phlei) [µM] | MIC (Edwardsiella tarda) [µM] | MIC (Escherichia coli) [µM] | MIC (Bacillus subtilis) [µM] | MIC (Staphylococcus aureus) [µM] | MIC (Vibrio parahaemolyticus) [µM] | MIC (Staphylococcus) [µM] | other results
CCCCCCC1C([C@@H](O)C(=O)[C@H](O)CCC)C=C2C3(OC)OC(=O)[C@]2(C)CC2=C(C(=O)OC2=O)C13 (stereo partly specified) | > 30 | > 30 | > 30 | > 30 | > 30 | > 30 | > 30 | > 30 | > 30 | > 30 | > 50 | > 50 | 3.13 (≈ 1.58 µg/mL) | > 50 | > 50 | > 50 | > 50 | > 50 | 6.13 (≈ 3.09 µg/mL) | > 50 | IC50 (PC-3): > 30 µM; IC50 (MGC-803): > 30 µM; IC50 [1]: > 30 µM; IC50 (MCF7): > 30 µM; IC50 (MDA-MB-231): > 30 µM; IC50 (NCI-H446): > 30 µM
O=C(O)c1cn(C2CC2)c2cc(N3CCNCC3)c(F)cc2c1=O [CIPROFLOXACIN] |  |  |  |  |  |  |  |  |  |  | 0.78 (≈ 0.258 µg/mL) | 25 (≈ 8.28 µg/mL) | 0.098 (≈ 0.0325 µg/mL) | 0.195 (≈ 0.0646 µg/mL) | 0.0245 (≈ 0.00812 µg/mL) | 25 (≈ 8.28 µg/mL) | 0.195 (≈ 0.0646 µg/mL) | 25 (≈ 8.28 µg/mL) | 0.39 (≈ 0.129 µg/mL) | 25 (≈ 8.28 µg/mL) | 
CCCCCCC1C2C(=O)C(=CC1[C@@H](O)C(=O)[C@H](O)CCC)[C@](C)(C(=O)OC)CC1=C2C(=O)OC1=O (stereo partly specified) | > 30 | > 30 | > 30 | > 30 | > 30 | > 30 | > 30 | > 30 | > 30 | > 30 | > 50 | > 50 | > 50 | > 50 | > 50 | > 50 | > 50 | > 50 | > 50 | > 50 | IC50 (PC-3): > 30 µM; IC50 (MGC-803): > 30 µM; IC50 [1]: > 30 µM; IC50 (MCF7): > 30 µM; IC50 (MDA-MB-231): > 30 µM; IC50 (NCI-H446): > 30 µM
CCCCCCC1C2C(=O)C(=CC1[C@@H](O)C(=O)[C@H](O)CCC)[C@@H](C)CC1=C2C(=O)OC1=O (stereo partly specified) | > 30 | > 30 | > 30 | > 30 | > 30 | > 30 | > 30 | > 30 | > 30 | > 30 | > 50 | > 50 | > 50 | > 50 | > 50 | > 50 | > 50 | > 50 | > 50 | > 50 | IC50 (PC-3): > 30 µM; IC50 (MGC-803): > 30 µM; IC50 [1]: > 30 µM; IC50 (MCF7): > 30 µM; IC50 (MDA-MB-231): > 30 µM; IC50 (NCI-H446): > 30 µM
CCCCCCC1C([C@@H](O)C(=O)[C@H](C)CCC)C=C2C3(OC)OC(=O)[C@]2(C)CC2=C(C(=O)OC2=O)C13 (stereo partly specified) | > 30 | > 30 | > 30 | > 30 | > 30 | > 30 | > 30 | > 30 | > 30 | > 30 | > 50 | > 50 | > 50 | > 50 | > 50 | > 50 | > 50 | > 50 | > 50 | > 50 | IC50 (PC-3): > 30 µM; IC50 (MGC-803): > 30 µM; IC50 [1]: > 30 µM; IC50 (MCF7): > 30 µM; IC50 (MDA-MB-231): > 30 µM; IC50 (NCI-H446): > 30 µM
CCCCCCC1C([C@@H](O)C(=O)[C@H](O)CCC)C=C2C3(O)OC(=O)[C@]2(C)CC2=C(C(=O)OC2=O)C13 (stereo partly specified) | > 30 | > 30 | > 30 | > 30 | > 30 | > 30 | > 30 | > 30 | > 30 | > 30 | > 50 | > 50 | 12.5 (≈ 6.13 µg/mL) | > 50 | > 50 | > 50 | > 50 | > 50 | > 50 | > 50 | IC50 (PC-3): > 30 µM; IC50 (MGC-803): > 30 µM; IC50 [1]: > 30 µM; IC50 (MCF7): > 30 µM; IC50 (MDA-MB-231): > 30 µM; IC50 (NCI-H446): > 30 µM
CCCC[C@H]1CC2C([C@@H](O)C(=O)[C@H](O)CCC)C=C3C4(OC(=O)[C@]3(C)CC3=C(C(=O)OC3=O)C24)O1 (stereo partly specified) | > 30 | > 30 | > 30 | > 30 | > 30 | > 30 | > 30 | > 30 | > 30 | > 30 | > 50 | > 50 | > 50 | > 50 | > 50 | > 50 | > 50 | > 50 | > 50 | > 50 | IC50 (PC-3): > 30 µM; IC50 (MGC-803): > 30 µM; IC50 [1]: > 30 µM; IC50 (MCF7): > 30 µM; IC50 (MDA-MB-231): > 30 µM; IC50 (NCI-H446): > 30 µM
